# Measurements taken from PMC9645344, “Serotonin-releasing agents with reduced off-target effects” (Molecular Psychiatry, 2022).
# Legend:
# human SERT = target: T1, human SERT (Homo sapiens, UniProt P31645); test: SERT uptake inhibition assay in HEK293 cells ([3H]5-HT); format: cell-based
# T1 construct: expressed in transfected cells
# Procedure: (§1) Human embryonic kidney 293 (HEK293) cells stably expressing the human isoforms of either DAT or SERT were maintained in Dulbecco’s Modified Eagle Medium (DMEM), supplemented with 10% fetal calf serum at a subconfluent state in humidified atmosphere (5% CO2, 37 °C).
# (§2) Uptake inhibition assays were performed as described earlier. Briefly, HEK293 cells stably expressing human SERT or DAT were seeded onto poly- D-lysine (PDL) coated 96-well plates (40,000 cells well^−1) the day before an experiment. Prior to the uptake inhibition assay, DMEM was replaced with Krebs-HEPES buffer (KHB, 25 mM HEPES, 120 mM NaCl, 5 mM KCl, 1.2 mM CaCl2, 1.2 mM MgSO4, and 5 mM D-glucose, pH 7.3) and the cells were preincubated with test drugs for 5 min at room temperature. Uptake assays were initiated by adding 20 nM [^3H]MPP^+ to DAT cells or 100 nM [^3H]5-HT to SERT cells. After 180 s (DAT) or 60 s (SERT), the tritiated substrate was removed by aspiration. Cells were washed once with ice-cold KHB, then lysed in 1% sodium dodecyl sulfate (SDS) and subjected to liquid scintillation counting to quantify tritium accumulated in each sample. Non-specific uptake was determined in the presence of mazindol (1 µM) for DAT or paroxetine (1 µM) for SERT and subtracted throughout.
# C57BL/6N mice = test: Forced-swim test (FST); format: in vivo; settings: for immobility time in the FST versus vehicle: mice
# Procedure: (§3) All in vivo experiments were performed in adult mice (>6 weeks old). For the photometry and microdialysis experiments, which were carried out in Florida, male C57BL/6J mice from The Jackson Laboratory (Bar Harbor, ME, USA) were group-housed in polycarbonate cages (GM500, Tecniplast, Buguggiate, Italy) with lights on from 7 a.m. to 7 p.m. Food and water were provided ad libitum. Photometry and microdialysis experiments were performed in accordance with a protocol approved by the Institutional Animal Care and Use Committee at Florida Atlantic University. For the behavioral experiments, which were carried out in Vienna, C57BL/6N mice from Charles River (Sulzfeld, Germany) were group-housed in polycarbonate cages with lights on from 7 a.m. to 7 p.m. Food and water were provided ad libitum. Behavioral experiments were performed in accordance with a protocol approved by the Austrian national ethical committee on animal care and use (Bundesministerium für Wissenschaft und Forschung: BMWFW-66.009/0016-WF/V/3b/2015). All animal procedures were conducted in agreement with the ARRIVE guidelines and the U.K. Animal (Scientific Procedures) Act, 1986, and associated guidelines, EU Directive 2010/63/EU for animal experiments. Mice were given at least 1 week to acclimate before being used in any experiments.
# For behavioral assays, animals were assigned to treatment groups and injected with test drugs by an unblinded observer.
# The FST was performed as previously described. In brief, mice were placed for 6 min in a beaker (diameter: 19 cm, height: 23 cm), halfway filled with water (22–23 °C), and the immobility time was quantified using the software Videotrack (Viewpoint, Champagne au Mont d’Or, France). Immobility was defined as the absence of any movement, except for those required to keep the head above the water. The time spent immobile during the final 4 min of the test was used as a measure of behavioral despair. Animal sample size was confirmed using a post hoc analysis of the achieved power using G*Power3.1 [29]. Using a significance level (α) of 0.05 and an effect size f = 2.5 and a sample size of 6 animals/group we achieved the commonly accepted statistical power (1−β) of 0.8.
# human DAT = target: T2, human DAT (Homo sapiens, UniProt Q01959); test: DAT uptake inhibition assay in HEK293 cells ([3H]MPP+); format: cell-based; settings: for DAT/SERT ratio: (1/DAT IC50)/(1/SERT IC50), higher values indicate higher DAT-selectivity
# T2 construct: expressed in transfected cells
# T2 sequence (Q01959 whole entry): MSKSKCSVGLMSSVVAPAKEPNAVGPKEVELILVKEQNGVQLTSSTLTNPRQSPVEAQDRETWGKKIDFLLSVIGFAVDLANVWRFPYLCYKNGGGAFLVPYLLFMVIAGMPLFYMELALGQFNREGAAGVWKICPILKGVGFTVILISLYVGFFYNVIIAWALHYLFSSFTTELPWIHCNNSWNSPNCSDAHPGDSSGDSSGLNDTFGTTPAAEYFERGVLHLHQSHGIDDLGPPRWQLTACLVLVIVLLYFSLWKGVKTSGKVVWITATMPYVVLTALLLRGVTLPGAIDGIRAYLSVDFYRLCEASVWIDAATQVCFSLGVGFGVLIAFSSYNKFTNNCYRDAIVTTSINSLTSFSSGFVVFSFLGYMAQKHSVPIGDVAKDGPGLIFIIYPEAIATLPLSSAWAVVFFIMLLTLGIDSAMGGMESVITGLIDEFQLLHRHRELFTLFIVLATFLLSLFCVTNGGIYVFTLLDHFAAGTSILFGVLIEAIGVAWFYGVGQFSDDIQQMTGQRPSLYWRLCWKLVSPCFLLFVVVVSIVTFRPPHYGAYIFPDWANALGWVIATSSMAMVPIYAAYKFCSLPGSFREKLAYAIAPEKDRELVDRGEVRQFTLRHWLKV
# Procedure: as §1, §2
# [1] = tested on: extracellular 5-HT and DA in the NAc; test: In vivo microdialysis in the NAc of freely moving mice
# Procedure: as §3
# Mice were anesthetized with isoflurane (5% induction, 2% maintenance) and placed into a stereotaxic frame (Kopf Instruments, Tujunga, CA, USA) oriented in the flat skull position. Ophthalmic ointment was applied to prevent drying of the eyes. Ketoprofen (10 mg kg^−1) was administered subcutaneously (s.c.), whereas bupivacaine and lidocaine were administered locally (s.c.; 100 µl of sterile saline containing 0.05% bupivacaine and 0.2% lidocaine) to the surgical site atop the head. A midline incision was made through the skin on the dorsal surface of the head to expose the skull. Fascia was removed, coordinates for the NAc were determined relative to bregma: anterior/posterior = 1.54 mm; medial/lateral = 0.7 mm; dorsal/ventral = −4.1 mm. A 1 mm burr hole was drilled through the skull. […]
# Microdialysis was performed based on a previous publication. […] Dialysate samples were collected on ice and stored at −80 °C until they were analyzed using high-performance liquid chromatography with electrochemical detection. Drug-induced changes in extracellular DA and 5-HT were expressed as fold change compared to basal monoamine levels obtained during the first three pretreatment samples.
# [2] = 5 mg kg-1 with or without fluoxetine 10 mg kg-1, repeated measures two-way ANOVA
# T1 sequence (P31645 whole entry): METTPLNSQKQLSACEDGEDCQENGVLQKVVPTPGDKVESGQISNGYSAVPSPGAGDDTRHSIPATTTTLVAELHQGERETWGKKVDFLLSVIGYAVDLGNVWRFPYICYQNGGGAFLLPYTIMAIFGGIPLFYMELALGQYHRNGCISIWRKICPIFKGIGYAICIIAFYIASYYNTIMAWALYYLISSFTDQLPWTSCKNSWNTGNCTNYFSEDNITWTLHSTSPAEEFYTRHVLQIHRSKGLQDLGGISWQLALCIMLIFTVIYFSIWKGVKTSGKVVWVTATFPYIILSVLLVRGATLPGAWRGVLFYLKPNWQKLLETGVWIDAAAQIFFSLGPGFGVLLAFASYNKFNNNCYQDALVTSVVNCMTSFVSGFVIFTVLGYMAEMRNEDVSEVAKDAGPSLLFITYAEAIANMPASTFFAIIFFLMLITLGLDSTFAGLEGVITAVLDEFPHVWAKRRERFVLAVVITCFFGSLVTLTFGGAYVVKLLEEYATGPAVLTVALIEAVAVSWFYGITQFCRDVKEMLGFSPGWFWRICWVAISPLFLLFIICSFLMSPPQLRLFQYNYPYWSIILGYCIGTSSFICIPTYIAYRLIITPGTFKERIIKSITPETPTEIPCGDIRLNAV
Structure (SMILES),IC50 (human SERT) [µM],immobility time in the FST versus vehicle (C57BL/6N mice; 1 mg kg-1 intraperitoneal),"time spent immobile in the FST, male and female mice (C57BL/6N mice; 5 mg kg-1 intraperitoneal)",immobility time in the FST versus vehicle (C57BL/6N mice; 5 mg kg-1 intraperitoneal),immobility time in the FST versus vehicle (C57BL/6N mice; 10 mg kg-1 intraperitoneal),IC50 (human DAT) [µM],DAT/SERT ratio (human DAT),"dialysate 5-HT versus baseline ([1]; 5 mg kg-1 intraperitoneal, NAc)","effect of drug treatment (alone versus plus fluoxetine) on dialysate 5-HT [1, 2]","effect of drug treatment (alone versus plus fluoxetine) on dialysate DA [1, 2]","time spent immobile in the FST, male and female mice (C57BL/6N mice; 10 mg kg-1 intraperitoneal)",dialysate 5-HT with co-administered fluoxetine ([1]; 10 mg kg-1 intraperitoneal plus fluoxetine 10 mg kg-1)
"Cc1ccc(C(=O)[C@H](C)N)cc1 [S-4-MC, 4-methylcathinone]",12.6,significantly reduced immobility time versus vehicle,significantly reduced the time spent immobile regardless of sex,significantly reduced immobility time versus vehicle,significantly reduced immobility time versus vehicle,6.65,1.9,significantly elevated 5-HT in the dialysate,drug-treatment significantly affected 5-HT in the dialysate,but not DA,,
"CN[C@@H](C)C(=O)c1ccc(C(F)(F)F)cc1 [S-4-TFMMC, 4-trifluoromethyl-N-methylcathinone]",10.2,,,,significantly differed from the vehicle group,190,0.05,,,,significantly reduced the time spent immobile regardless of sex,fluoxetine markedly blunted the amount of dialysate 5-HT
